Test results published in patent US11498896B2 (The Broad Institute, Inc., priority 2014, dated 2022).

What was measured:
human D2R/β-arrestin [1] = target: T1, human D2R/β-arrestin (Homo sapiens (Human), UniProt P14416); assay: β-arrestin agonist assay (PathHunter); type: cell-based; conditions: CHO-K1 cells expressing human D2R/β-arrestin; agonist mode
Description: The detection reagent (9.6 μL, Buffer:Emerald II:Galactor-Star in a 19:5:1 ratio, i.e., 14.06 mL:3.7 mL:0.74 mL=18.5 mL) was then added to the agonist plates.

human D2R/β-arrestin [2] = target: T1, human D2R/β-arrestin; assay: Gi/cAMP agonist assay (Lance Ultra cAMP, forskolin); type: cell-based; conditions: CHO-K1 cells expressing human D2R/β-arrestin; agonist mode, 2.5 μM forskolin
Description: Eu-cAMP tracer solution (10 μl, PerkinElmer, 360 μl of Tracer in 17.64 ml kit buffer) and ULight-anti-cAMP solution (10 μl, 120 μL antibody in 17.88 ml kit buffer) was then added to each well.

human D2R/β-arrestin [3] = target: T1, human D2R/β-arrestin; assay: cell-based; conditions: cAMP Antagonist, CHO-K1 cells expressing human D2R/β-arrestin; antagonist mode, 2.5 μM forskolin and 2.7 nM quinpirole
Description: (§1) Cells were prepared for assays by growing cultures for up to 2 weeks (from about 6-20 passages). A vial of frozen cells was thawed in a water bath held at 37° C. The cells were then transferred into a 50 ml tube with 10 ml growth media. The vial was rinsed with growth media and the contents transferred to the 50 ml tube. The 50 ml tube was centrifuged at 1200 rpm for 5 minutes at room temperature. […] When the cells reached about 90% confluence (approximately 3 days between passages), the cells were passaged and used for either the agonist or antagonist assays as described below.
The cells were prepared for Gi/cAMP assays as described above. The assays were performed using a PE Lance Ultra cAMP kit (TRF0263). The cells were grown on 225 mm dishes, then washed once with 1×PBS (Cellgro) before digestion with 2.5 ml 1× Detachment reagent (DRX 92-0009) for about 2 minutes. PBS (20 ml) was then added to the plate, and the cells were transferred to a 50 ml centrifuge tube, and centrifuged at room temperature using BD Dynac III, at 1200 rpm for 5 minutes. […] The plates were then incubated at room temperature for about 30 minutes before addition of Eu-cAMP tracer solution (10 μl, PerkinElmer) and then ULight-anti-cAMP solution (10 μl) to each well.

human D2R/β-arrestin [4] = target: T1, human D2R/β-arrestin; assay: cell-based; conditions: β-arrestin Antagonist, CHO-K1 cells expressing human D2R/β-arrestin; antagonist mode, quinpirole 130 nM
Description: as §1
The cells were prepared for β-arrestin assays as described above. The assays were performed using a PathHunter® β-Arrestin Detecting Kit (DiscoveRX). The cells were grown on 225 mm dishes, then washed once with 1×PBS (Cellgro), followed by digestion with 2.5 ml 1× Detachment reagent (DRX 92-0009) for approximately 2 minutes.

T1 sequence (P14416 whole entry): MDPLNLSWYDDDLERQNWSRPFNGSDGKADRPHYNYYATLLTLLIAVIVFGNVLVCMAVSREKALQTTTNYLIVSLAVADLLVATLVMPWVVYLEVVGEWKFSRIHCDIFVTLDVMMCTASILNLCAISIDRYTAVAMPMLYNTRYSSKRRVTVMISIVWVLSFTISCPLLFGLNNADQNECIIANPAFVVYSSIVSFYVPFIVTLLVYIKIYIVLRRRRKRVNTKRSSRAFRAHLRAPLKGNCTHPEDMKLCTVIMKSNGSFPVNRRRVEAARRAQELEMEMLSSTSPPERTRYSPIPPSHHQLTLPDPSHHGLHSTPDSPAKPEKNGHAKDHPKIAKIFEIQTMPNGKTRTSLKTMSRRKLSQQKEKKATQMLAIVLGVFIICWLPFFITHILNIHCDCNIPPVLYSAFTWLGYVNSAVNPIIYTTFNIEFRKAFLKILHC

Row | SMILES | EC50 (human D2R/β-arrestin [1]) [µM] | EC50 (human D2R/β-arrestin [2]) [µM] | IC50 (human D2R/β-arrestin [3]) [µM] | IC50 (human D2R/β-arrestin [4]) [µM]
1 | CC1(Oc2ccc(Cl)cc2)CCN(CCOc2ccc3ccc(=O)[nH]c3c2)C1 (centres unmarked) [Compound 25, 7-(2-(3-(4-chlorophenoxy)-3-methylpyrrolidin-1-yl)ethoxy)quinolin-2(1H)-one] | > 30 | > 30 | 1 to 10 | 1 to 10
2 | CC1(Oc2ccccc2)CCN(CCC(=O)c2ccccc2C(F)(F)F)CC1 [Compound 116, 3-(4-Methyl-4-phenoxypiperidin-1-yl)-1-(2-(trifluoromethyl)phenyl) propan-1-one] | > 30 | > 30 | 1 to 10 | 10 to 30
3 | CC1(Oc2ccc(Cl)cc2)CCN(CCOc2cccc(Cl)c2)C1 (centres unmarked) [Compound 10, 3-(4-chlorophenoxy)-1-(2-(3-chlorophenoxy)ethyl)-3-methylpyrrolidine] | > 30 | < 0.1 | > 30 | 1 to 10
4 | CC1(O)CCN(CCOc2ccccc2F)CC1 [Compound 131, 1-(2-(2-fluorophenoxy)ethyl)-4-methylpiperidin-4-ol] | 0.1 to 1 | < 0.1 | > 30 | 1 to 10
5 | CC1(Oc2ccc(Cl)cc2)CCN(CCOc2ccc3ccccc3c2)C1 (centres unmarked) [Compound 31, 3-(4-Chlorophenoxy)-3-methyl-1-(2-(naphthalen-2-yloxy)ethyl) pyrrolidine] | > 30 | > 30 | 0.1 to 1 | 1 to 10
6 | CC1(Oc2ccc(Cl)cc2)CCN(CCOc2ccc(Cl)c(Cl)c2)C1 (centres unmarked) [Compound 35, 3-(4-chlorophenoxy)-1-(2-(3,4-dichlorophenoxy)ethyl)-3-methyl pyrrolidine] | > 30 | < 0.1 | > 30 | 1 to 10
7 | CC1(Oc2ccc(Cl)cc2)CCN(CCOc2ccc3ncsc3c2)C1 (centres unmarked) [Compound 18, 6-(2-(3-(4-chlorophenoxy)-3-methylpyrrolidin-1-yl)ethoxy)benzo[d]thiazole] | > 30 | 0.1 to 1 | > 30 | 1 to 10
8 | COc1ccccc1OCCN1CCC(C)(Oc2ccc(Cl)cc2)C1 (centres unmarked) [Compound 2, 3-(4-Chlorophenoxy)-1-(2-(2-methoxyphenoxy)ethyl)-3-methyl pyrrolidine] | > 30 | > 30 | 0.1 to 1 | 0.1 to 1

The remaining lines, values ahead:

Row | EC50 (human D2R/β-arrestin [1]) [µM] | EC50 (human D2R/β-arrestin [2]) [µM] | IC50 (human D2R/β-arrestin [3]) [µM] | IC50 (human D2R/β-arrestin [4]) [µM] | SMILES
9 | > 30 | > 30 | 1 to 10 | 1 to 10 | CC(=O)c1ccc(OCCN2CCC(C)(Oc3ccc(Cl)cc3)CC2)cc1 [Compound 153, 1-(4-(2-(4-(4-chlorophenoxy)-4-methylpiperidin-1-yl)ethoxy)phenyl)ethanone]
10 | > 30 | 0.1 to 1 | > 30 | > 30 | CC1(Oc2ccc(Cl)cc2)CCN(CCOc2ccc3cccc(C(F)(F)F)c3n2)CC1 [Compound 171, 2-(2-(4-(4-chlorophenoxy)-4-methylpiperidin-1-yl)ethoxy)-8-(trifluoromethyl)quinoline]
11 | > 30 | 1 to 10 | > 30 | 10 to 30 | CC(CO)N1CCC(C)(Oc2ccccc2)CC1 (centres unmarked) [Example 81, 2-(4-Methyl-4-phenoxypiperidin-1-yl)propan-1-ol]
12 | > 30 | 1 to 10 | 1 to 10 | 1 to 10 | OCC1(Cc2ccc(Cl)cc2)CCN(CCOc2ccccc2C(F)(F)F)CC1 [Compound 214, (4-(4-chlorobenzyl)-1-(2-(2-(trifluoromethyl)phenoxy)ethyl)piperidin-4-yl)methanol]
13 | < 0.1 | < 0.1 | > 30 | > 30 | CC1(Oc2ccc(Cl)cc2)CCN(CCOc2ccc(C(F)(F)F)nc2)CC1 [Compound 147, 5-(2-(4-(4-chlorophenoxy)-4-methylpiperidin-1-yl)ethoxy)-2-(trifluoromethyl)pyridine]
14 | > 30 | > 30 | 1 to 10 | 1 to 10 | FC(F)(F)c1ccccc1OCCN1CCC(=Cc2ccccc2)CC1 [Example 101, 4-benzylidene-1-(2-(2-(trifluoromethyl)phenoxy)ethyl)piperidine]
